One experiment has as its system PPARg. Put plainly: PPARgamma Transient Cotransfection Assay. The experiment is classed as cell-based. The note with it: CAT reporter, read-out: PPARg EC50.
In the next experiment the target is T1, hPPARgamma (Homo sapiens, UniProt P37231).
T1 construct: 10x-histidine tag (N); made in house; host or cells: E. coli
T1 sequence (P37231 195-475 isoform P37231-2): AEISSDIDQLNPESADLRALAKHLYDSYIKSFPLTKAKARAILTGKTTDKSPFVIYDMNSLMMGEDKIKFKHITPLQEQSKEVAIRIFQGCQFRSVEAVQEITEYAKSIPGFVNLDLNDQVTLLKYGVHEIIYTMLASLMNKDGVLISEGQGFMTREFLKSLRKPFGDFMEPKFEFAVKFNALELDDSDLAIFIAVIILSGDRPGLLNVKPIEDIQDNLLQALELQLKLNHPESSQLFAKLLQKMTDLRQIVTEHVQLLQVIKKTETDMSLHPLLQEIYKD
Put plainly: hPPARgamma Ligand Binding Assay. The note with it: competition with [3H]-BRL 49,653, room temperature 2 hrs.

pEC50, pKi: −log10 of the molar value. Where a name gives a salt, the structure may show the parent alone. Read-outs that look alike come from different tables or passages of the source.

For the molecule `COC(=O)c1ccccc1N[C@@H](Cc1ccc(OCCc2ccc(N(C)C)cc2)cc1)C(=O)O` [Example 104, 2(S)-(1-carboxy-2-{4-[2-(4-dimethylamino-phenyl)-ethoxy]-phenyl}-ethylamino)-benzoic acid methyl ester], in the experiment with PPARg, the pEC50 was 6.05. This molecule showed a pKi on hPPARgamma (PPARg Ki) of 5.52.
In the same order, the values of `Cc1ccc(NC(Cc2ccc(OCCN(C)c3nc4ccccc4o3)cc2)C(=O)O)c(C(=O)c2ccccc2)c1` (stereo not shown) [Example 19, 3-{4-[2-(benzoxazol-2-yl-methyl-amino)-ethoxy]-phenyl}-2-(2-benzoyl-4-methyl-phenylamino)-propionic acid] are 7.19 and 6.73.
For `CC(=CC(=O)c1cccc(I)c1)N[C@@H](Cc1ccc(OCCN(C)c2nc3ccccc3o2)cc1)C(=O)O` [Example 18, 3-{4-[2-(Benzoxazol-2-yl-methyl-amino)-ethoxy]-phenyl}-2(S)-[3-(3-iodo-phenyl)-1-methyl-3-oxo-propenylamino]-propionic acid dicyclohexylamine salt], in that order: 8.30 and 8.00.
Turning to `Cc1oc(-c2ccccc2)nc1CCOc1ccc(C[C@H](Nc2ccccc2C(=O)NCCN)C(=O)O)cc1` [Example 89, 2-(S)-(1-carboxy-2-{4-{2-(5-methyl-2-phenyl-oxazol-4-yl)-ethoxy]-phenyl}-ethylamino)-benzoic acid 2-aminoethyl amide hydrochloride], in the experiment on PPARg, the pEC50 was 7.22. At hPPARgamma (PPARg Ki), this molecule showed a pKi of 5.52.
In the case of `COC(=O)c1ccccc1N[C@@H](Cc1ccc(OC[C@@H]2CCCN2c2ccc([N+](=O)[O-])cc2)cc1)C(=O)O` [Example 47, 2-(1-Carboxy-2-{4-[1-(4-nitro)-phenyl-pyrrolidin-2-ylmethoxy]-phenyl}-ethylamino)-benzoic acid methyl ester], in the experiment with PPARg, the pEC50 was 7.30. On hPPARgamma (PPARg Ki), this molecule gave a pKi of 6.62.
For `O=C(c1ccccc1)c1sccc1NC(Cc1ccc(OCc2ccccc2)cc1)C(=O)O` (stereo not shown) [Example 9, 2-(2-Benzoyl-thiophen-3-yl-amino)-3-(4-benzyloxy-phenyl)-propionic acid], in that order: 6.20 and 6.15.
In the case of `COC(=O)c1ccccc1N[C@@H](Cc1ccc(OCCOc2ccc([N+](=O)[O-])cn2)cc1)C(=O)O` [Example 69], the pEC50 in the experiment on PPARg is 7.00. For the same molecule, the pKi at hPPARgamma (read-out: PPARg Ki) was 6.54.
For `CN(CCOc1ccc(CC(Nc2ccccc2C(=O)C2CCCCC2)C(=O)O)cc1)c1nc2ccccc2o1` (stereo not shown) [Example 24, 3-{4-[2-(Benzoxazol-2-yl-methyl-amino)-ethoxy]-phenyl}-2-(2-cyclohexanecarbonyl-phenylamino)-propionic acid], in the experiment with PPARg, the negative-log EC50 (pEC50) was 9.00. This molecule gave a pKi on hPPARgamma (PPARg Ki) of 7.52.
As for `COC(=O)c1ccccc1N[C@@H](Cc1ccc(OCCc2nc(-c3ccccc3)sc2C)cc1)C(=O)O` [Example 45, 2-(1-Carboxy-2-{4-[2-(5-methyl-2-phenyl-thiazol-4-yl)-ethoxy]-phenyl}-ethylamino)-benzoic acid methyl ester], the pEC50 with PPARg was 9.00. The pKi at hPPARgamma (PPARg Ki) is 7.52.
In the same order, the values of `Cc1oc(-c2ccccc2)nc1CCOc1ccc(C[C@H](Nc2ccccc2C(=O)c2ccncc2)C(=O)O)cc1` [Example 56, 3-{4-[2-(5-Methyl-2-phenyl-oxazol-4-yl)-ethoxy]-phenyl}-2(S)-[2-(pyridine-4-carbonyl)-phenylamino]-propionic acid] are 9.00 and 8.00.
In the same order, the values of `CC(=CC(=O)c1ccccc1)N[C@@H](Cc1ccc(OCCN(C)c2nc3ccccc3o2)cc1)C(=O)O` [Example 17, 3-{4-[2-(Benzoxazol-2yl-methyl-amino)-ethoxy]-phenyl}-2(S)-(1-methyl-3-oxo-3-phenyl-propenylamino)-propionic acid dicyclohexylamine salt] are 9.00 and 7.10.

The values above are taken from patent publication US6294580A, “Substituted 4-hydroxy-phenylalcanoic acid derivatives with agonist activity to PPAR-gamma” (Glaxo Wellcome Inc., priority 1996, dated 2001).
